Activity calls are given as the source filed them. No cut-off for these calls is given here.
Experiments:
Hepatocyte [1] = assay: Inhibition of glucose production in Sprague-Dawley rat primary hepatocytes grown under gluconeogenic medium assessed as glucose production level at 5 uM incubated for 6 hrs by glucose assay reagent based glucose oxidase method (reference value: 100%); format: functional; design: scale not given: the % may be the effect or the level left
L6 [2] = assay: Stimulation of glucose consumption in rat L6 cells at 20 uM incubated for 12 hrs by glucose assay reagent based glucose oxidase method relative to untreated control; format: functional
Hepatocyte [3] = assay: Inhibition of glucose production in Sprague-Dawley rat primary hepatocytes grown under gluconeogenic medium assessed as glucose production level at 20 uM incubated for 6 hrs by glucose assay reagent based glucose oxidase method (reference value: 100%); format: functional; design: scale not given: the % may be the effect or the level left
L6 [4] = assay: Inhibition of mitochondrial membranes potential in rat L6 cells assessed as mitochondrial membranes potential level at 20 uM incubated for 40 mins by JC1 dye staining based fluorescence assay (reference value: 100 +/- 2.8%); format: functional; design: scale not given: the % may be the effect or the level left
Hepatocyte [5] = assay: Inhibition of glucose production in Sprague-Dawley rat primary hepatocytes grown under gluconeogenic medium incubated for 6 hrs by glucose assay reagent based glucose oxidase method (reference value: 100%); format: functional, cell-based
Hepatocyte [6] = assay: Inhibition of glucose production in Sprague-Dawley rat primary hepatocytes grown under gluconeogenic medium assessed as glucose production level at 10 uM incubated for 6 hrs by glucose assay reagent based glucose oxidase method (reference value: 100%); format: functional; design: scale not given: the % may be the effect or the level left
[7] = target: AMPK alpha2/beta1/gamma1 (Homo sapiens) (UniProt P54646+P54619+Q9Y478); assay: Activation of human recombinant AMPKalpha2beta1gamma1 expressed in Escherichia coli at 20 uM incubated for 1 hr using serine/threonine kinase substrate
L6 [8] = assay: Inhibition of oxygen consumption rate in rat L6 cells assessed as oxygen consumption level at 20 uM (reference value: 100 +/- 1.6%); format: functional; design: scale not given: the % may be the effect or the level left
L6 [9] = assay: Activation of AMPKalpha in rat L6 cells assessed as increase in AMPKalpha Thr172 phosphorylation incubated for 1 hrs by Western blot method; format: cell-based
L6 [10] = assay: Activation of AMPKalpha in rat L6 cells assessed as increase in ACC phosphorylation incubated for 1 hrs by Western blot method; format: cell-based
L6 [11] = assay: Inhibition of oxygen consumption rate in rat L6 cells assessed as oxygen consumption level at 10 uM (reference value: 100 +/- 1.6%); format: functional; design: scale not given: the % may be the effect or the level left
[12] = target: AMP-activated protein kinase alpha-1/beta-2/gamma-3 (Homo sapiens) (UniProt O43741+Q13131+Q9UGI9); assay: Activation of human recombinant AMPKalpha1beta2gamma3 expressed in Escherichia coli at 20 uM incubated for 1 hr using serine/threonine kinase substrate
L6 [13] = assay: Inhibition of oxygen consumption rate in rat L6 cells; format: functional, cell-based
[14] = target: AMP-activated protein kinase alpha-2/beta-2/gamma-2 (Homo sapiens) (UniProt P54646+O43741+Q9UGJ0); assay: Activation of human recombinant AMPKalpha2beta2gamma2 expressed in Escherichia coli at 20 uM incubated for 1 hr using serine/threonine kinase substrate
[15] = Inhibition of oxygen consumption rate in isolated mitochondria from rat L6 cells assessed as oxygen consumption level at 2.5 uM (reference value: 100 +/- 1.9%); format: functional; design: scale not given: the % may be the effect or the level left
[16] = target: AMPK alpha1/beta2/gamma1 (Homo sapiens) (UniProt O43741+P54619+Q13131); assay: Activation of human recombinant AMPKalpha1beta2gamma1 expressed in Escherichia coli at 20 uM incubated for 1 hr using serine/threonine kinase substrate
L6 [17] = assay: Inhibition of oxygen consumption rate in isolated mitochondria from rat L6 cells; format: functional
[18] = target: AMP-activated protein kinase alpha-2/beta-1/gamma-3 (Homo sapiens) (UniProt P54646+Q9Y478+Q9UGI9); assay: Activation of human recombinant AMPKalpha2beta1gamma3 expressed in Escherichia coli at 20 uM incubated for 1 hr using serine/threonine kinase substrate
[19] = target: AMP-activated protein kinase (AMPK) alpha-1/beta-1/gamma-1 (Homo sapiens) (UniProt P54619+Q9Y478+Q13131); assay: Activation of human recombinant AMPKalpha1beta1gamma1 expressed in Escherichia coli at 20 uM incubated for 1 hr using serine/threonine kinase substrate
[20] = target: AMPK alpha1/beta1/gamma2 (Homo sapiens) (UniProt Q9UGJ0+Q9Y478+Q13131); assay: Activation of human recombinant AMPKalpha1beta1gamma2 expressed in Escherichia coli at 20 uM incubated for 1 hr using serine/threonine kinase substrate
[21] = Inhibition of oxygen consumption rate in isolated mitochondria from rat L6 cells assessed as oxygen consumption level at 10 uM (reference value: 100 +/- 1.9%); format: functional; design: scale not given: the % may be the effect or the level left
[22] = target: AMPK alpha2/beta2/gamma1 (Homo sapiens) (UniProt P54646+O43741+P54619); assay: Activation of human recombinant AMPKalpha2beta2gamma1 expressed in Escherichia coli at 20 uM incubated for 1 hr using serine/threonine kinase substrate
[23] = Inhibition of oxygen consumption rate in isolated mitochondria from rat L6 cells assessed as oxygen consumption level at 1.2 uM (reference value: 100 +/- 1.9%); format: functional; design: scale not given: the % may be the effect or the level left
[24] = Inhibition of oxygen consumption rate in isolated mitochondria from rat L6 cells assessed as oxygen consumption level at 5 uM (reference value: 100 +/- 1.9%); format: functional; design: scale not given: the % may be the effect or the level left

Sequence of AMP-activated protein kinase alpha-2/beta-1/gamma-3 (Homo sapiens) (P54646 whole entry): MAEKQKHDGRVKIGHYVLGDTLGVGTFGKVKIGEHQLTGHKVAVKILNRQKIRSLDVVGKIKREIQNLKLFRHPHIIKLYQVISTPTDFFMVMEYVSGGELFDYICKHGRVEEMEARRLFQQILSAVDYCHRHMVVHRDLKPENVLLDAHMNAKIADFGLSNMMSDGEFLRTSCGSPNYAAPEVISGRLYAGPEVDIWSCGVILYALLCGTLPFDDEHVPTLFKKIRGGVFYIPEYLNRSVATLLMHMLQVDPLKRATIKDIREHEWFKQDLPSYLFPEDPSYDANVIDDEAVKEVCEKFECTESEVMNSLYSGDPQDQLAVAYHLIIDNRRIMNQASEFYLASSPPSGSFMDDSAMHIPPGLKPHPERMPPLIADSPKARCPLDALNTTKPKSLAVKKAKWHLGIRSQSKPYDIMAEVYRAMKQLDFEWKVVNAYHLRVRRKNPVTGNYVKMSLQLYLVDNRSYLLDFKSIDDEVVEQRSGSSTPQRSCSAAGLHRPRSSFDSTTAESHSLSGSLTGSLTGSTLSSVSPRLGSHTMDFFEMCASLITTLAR
Sequence of AMP-activated protein kinase alpha-2/beta-1/gamma-3 (Homo sapiens) (Q9UGI9 whole entry partner): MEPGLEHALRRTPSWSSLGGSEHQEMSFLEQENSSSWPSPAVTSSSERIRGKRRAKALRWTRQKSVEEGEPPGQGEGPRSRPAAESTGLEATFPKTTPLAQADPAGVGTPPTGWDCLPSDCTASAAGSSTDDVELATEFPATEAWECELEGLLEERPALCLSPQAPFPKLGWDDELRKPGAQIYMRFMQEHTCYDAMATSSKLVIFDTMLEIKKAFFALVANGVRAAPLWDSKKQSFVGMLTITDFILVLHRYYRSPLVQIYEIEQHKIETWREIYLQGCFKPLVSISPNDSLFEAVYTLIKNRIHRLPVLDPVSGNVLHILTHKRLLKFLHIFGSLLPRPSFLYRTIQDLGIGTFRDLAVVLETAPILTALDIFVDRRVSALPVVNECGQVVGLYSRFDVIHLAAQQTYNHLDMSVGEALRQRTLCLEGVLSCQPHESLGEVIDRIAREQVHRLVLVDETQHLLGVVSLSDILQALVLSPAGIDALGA
Sequence of AMP-activated protein kinase alpha-2/beta-1/gamma-3 (Homo sapiens) (Q9Y478 2-270 partner limits assumed): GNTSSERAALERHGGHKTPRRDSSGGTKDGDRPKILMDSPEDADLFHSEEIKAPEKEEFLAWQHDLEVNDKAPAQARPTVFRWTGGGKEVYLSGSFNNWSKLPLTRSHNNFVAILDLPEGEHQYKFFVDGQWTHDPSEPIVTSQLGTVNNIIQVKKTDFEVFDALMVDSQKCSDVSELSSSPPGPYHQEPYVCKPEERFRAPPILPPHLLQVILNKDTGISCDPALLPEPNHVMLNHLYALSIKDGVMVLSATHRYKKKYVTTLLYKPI
Sequence of AMPK alpha1/beta1/gamma2 (Homo sapiens) (Q13131 whole entry partner): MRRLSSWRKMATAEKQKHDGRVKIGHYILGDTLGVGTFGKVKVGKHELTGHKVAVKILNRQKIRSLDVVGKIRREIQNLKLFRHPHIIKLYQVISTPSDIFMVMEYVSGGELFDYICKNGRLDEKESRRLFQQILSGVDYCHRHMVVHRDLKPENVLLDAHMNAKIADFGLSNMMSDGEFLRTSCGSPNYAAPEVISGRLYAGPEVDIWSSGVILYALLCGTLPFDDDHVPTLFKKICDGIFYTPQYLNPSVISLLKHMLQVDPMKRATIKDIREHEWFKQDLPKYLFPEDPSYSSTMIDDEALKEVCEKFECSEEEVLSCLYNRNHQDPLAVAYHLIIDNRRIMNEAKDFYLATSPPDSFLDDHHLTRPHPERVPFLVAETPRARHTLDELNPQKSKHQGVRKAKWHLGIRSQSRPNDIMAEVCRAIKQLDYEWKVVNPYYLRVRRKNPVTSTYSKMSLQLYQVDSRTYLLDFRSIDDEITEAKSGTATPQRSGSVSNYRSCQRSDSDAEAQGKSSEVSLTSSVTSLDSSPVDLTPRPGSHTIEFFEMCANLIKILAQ
Sequence of AMPK alpha1/beta1/gamma2 (Homo sapiens) (Q9UGJ0 whole entry): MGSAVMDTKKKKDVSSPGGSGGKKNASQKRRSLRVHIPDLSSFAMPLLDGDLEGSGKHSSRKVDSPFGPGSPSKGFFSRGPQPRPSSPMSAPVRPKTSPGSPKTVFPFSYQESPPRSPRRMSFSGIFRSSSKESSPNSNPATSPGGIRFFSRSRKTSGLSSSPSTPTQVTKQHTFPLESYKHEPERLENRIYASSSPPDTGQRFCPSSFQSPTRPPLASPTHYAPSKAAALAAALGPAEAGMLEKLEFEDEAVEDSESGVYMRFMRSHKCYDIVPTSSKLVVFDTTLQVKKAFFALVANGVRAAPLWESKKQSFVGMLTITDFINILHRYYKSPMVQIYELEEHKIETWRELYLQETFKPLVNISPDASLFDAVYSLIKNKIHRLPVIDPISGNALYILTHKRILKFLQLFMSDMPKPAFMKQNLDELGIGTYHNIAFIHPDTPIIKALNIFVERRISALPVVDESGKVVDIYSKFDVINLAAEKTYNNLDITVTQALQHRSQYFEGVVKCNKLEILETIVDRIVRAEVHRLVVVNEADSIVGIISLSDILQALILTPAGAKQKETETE
Sequence of AMPK alpha1/beta1/gamma2 (Homo sapiens) (Q9Y478 2-270 partner limits assumed): as the sequence (Q9Y478 2-270 partner limits assumed) above
Sequence of AMPK alpha2/beta2/gamma1 (Homo sapiens) (O43741 whole entry, looked up): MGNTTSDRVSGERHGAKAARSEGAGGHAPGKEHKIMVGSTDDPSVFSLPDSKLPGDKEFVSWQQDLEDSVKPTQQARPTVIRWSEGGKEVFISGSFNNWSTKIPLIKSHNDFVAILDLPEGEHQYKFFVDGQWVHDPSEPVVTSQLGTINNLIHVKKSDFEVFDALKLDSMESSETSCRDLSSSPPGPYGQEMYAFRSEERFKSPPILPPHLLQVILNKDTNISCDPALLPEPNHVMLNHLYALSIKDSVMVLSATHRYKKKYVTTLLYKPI
Sequence of AMPK alpha2/beta2/gamma1 (Homo sapiens) (P54619 whole entry, looked up): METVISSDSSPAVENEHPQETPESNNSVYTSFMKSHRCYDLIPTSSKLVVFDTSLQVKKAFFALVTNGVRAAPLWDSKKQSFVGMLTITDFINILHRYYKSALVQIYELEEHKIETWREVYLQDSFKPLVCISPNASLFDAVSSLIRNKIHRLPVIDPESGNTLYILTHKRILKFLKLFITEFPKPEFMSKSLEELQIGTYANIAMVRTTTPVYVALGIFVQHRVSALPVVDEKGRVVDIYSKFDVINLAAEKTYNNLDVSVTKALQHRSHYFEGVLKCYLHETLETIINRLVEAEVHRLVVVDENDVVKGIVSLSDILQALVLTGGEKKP
Sequence of AMPK alpha2/beta2/gamma1 (Homo sapiens) (P54646 whole entry, looked up): as the sequence (P54646 whole entry) above

SMILES: COc1ccc(OC)c2c1CC1c3cc(CC4CC4)sc3CCN1C2 (stereo not given)
- Activity (Hepatocyte [1]): 85.4%
- Activity (L6 [2]): 261.7%
- Activity (Hepatocyte [3]): 45.8%
- Activity (L6 [4]): 86.4%
- inhibition (Hepatocyte [5]): Dose-dependent effect
- Activity (Hepatocyte [6]): 62.8%

SMILES: c1cncc(Cc2cc3c(s2)CCN2Cc4ccccc4CC32)c1 (stereo not given)
- Activity (L6 [2]): 151.9%

SMILES: COc1ccc2c(c1OC)CN1CCc3sccc3C1C2 (stereo not given)
- Activity (L6 [2]): 79.5%

SMILES: COc1ccc(OC)c2c1CC1c3cc(C=O)sc3CCN1C2 (stereo not given)
- Activity (L6 [2]): 105.9%

SMILES: CC(C)(C)C(=O)Nc1ccc2c(c1)CC1c3ccsc3CCN1C2 (stereo not given)
- Activity (L6 [2]): 112.3%

SMILES: COc1ccc(OC)c2c1CC1c3cc(CN4CCCC4)sc3CCN1C2 (stereo not given)
- Activity (L6 [2]): 131.8%

SMILES: CC(=O)Nc1cc2c(cc1OCc1ccccc1)CN1CCc3sccc3C1C2 (stereo not given)
- Activity (L6 [2]): 138.5%

SMILES: CS(=O)(=O)Nc1cc2c(cc1OCc1ccccc1)CN1CCc3sccc3C1C2 (stereo not given)
- Activity (L6 [2]): 115.5%

SMILES: COc1ccc(OC)c2c1CC1c3ccsc3CCN1C2 (stereo not given)
- Activity [7]: inactive
- Activity (L6 [8]): 90.4%
- Activity (L6 [9]): Dose-dependent effect
- Activity (L6 [10]): Dose-dependent effect
- Activity (L6 [11]): 92.9%
- Activity [12]: inactive
- inhibition (L6 [13]): Dose-dependent effect
- Activity [14]: inactive
- Activity [15]: 69.3%
- Activity [16]: inactive
- inhibition (L6 [17]): Dose-dependent effect
- Activity (Hepatocyte [1]): 56.7%
- Activity [18]: inactive
- Activity [19]: inactive
- Activity (L6 [2]): 178.1%
- Activity (Hepatocyte [3]): 26.1%
- Activity [20]: inactive
- Activity (L6 [4]): 81.5%
- Activity [21]: 59.2%
- Activity [22]: inactive
- Activity [23]: 78.9%
- Activity [24]: 63.6%
- inhibition (Hepatocyte [5]): Dose-dependent effect
- Activity (Hepatocyte [6]): 46.6%

SMILES: COc1cc2c(cc1OC)CN1CCc3sccc3C1C2 (stereo not given)
- Activity (L6 [2]): 114.4%

SMILES: CNC(=O)c1cc2c(s1)CCN1Cc3c(OC)ccc(OC)c3CC21 (stereo not given)
- Activity (L6 [2]): 113.8%

SMILES: COc1ccc(OC)c2c1CC1c3cc(CN4CCOCC4)sc3CCN1C2 (stereo not given)
- Activity (L6 [2]): 101%

SMILES: COc1ccc(OC)c2c1CC1c3cc(C(=O)N4CCOCC4)sc3CCN1C2 (stereo not given)
- Activity (L6 [2]): 93.2%

SMILES: COc1cc2c(c(OC)c1OC)CN1CCc3sccc3C1C2 (stereo not given)
- Activity (L6 [2]): 131.1%

SMILES: COC(=O)c1cc2c(s1)CCN1Cc3c(OC)ccc(OC)c3CC21 (stereo not given)
- Activity (L6 [2]): 82.5%

SMILES: CC(=O)Nc1ccc2c(c1)CC1c3ccsc3CCN1C2 (stereo not given)
- Activity (L6 [2]): 107.7%

SMILES: O=C(Cc1ccccc1)Nc1ccc2c(c1)CC1c3ccsc3CCN1C2 (stereo not given)
- Activity (L6 [2]): 120.4%

Source: ChEMBL document CHEMBL4130473, “Design, synthesis and biological evaluation of 4,7,12,12a-tetrahydro-5H-thieno[3',2':3,4]pyrido[1,2-b]isoquinolines as novel adenosine 5'-monophosphate-activated protein kinase (AMPK) indirect activators for the treatment of type 2 diabetes” (Eur J Med Chem, 2017)
